Source: article PMC2579691, “Safety and pharmacokinetics of motesanib in combination with gemcitabine for the treatment of patients with solid tumours” (British Journal of Cancer, 2008)
pIC50: −log10 of the molar value.

Columns and labels:
CYP3A4 = test system: CYP3A4; parameters: method as in Shipley et al, 1992; Mini et al, 2006; conditions: ref Shipley et al, 1992; Mini et al, 2006; cited from earlier work
[1] = plasma pharmacokinetics of gemcitabine in patients (phase 1b); conditions: for Tmax: h (range)
advanced solid tumours = experiment: best tumour response per modified RECIST; assay type: in vivo, human; conditions: for Confirmed complete response, n (%) / Confirmed objective response, % (95% CI) / Confirmed partial response, n (%) / Progressive disease, n (%) / Stable disease, n (%): with gemcitabine 1000 mg m^−2
Procedure: Computed tomography (CT) or magnetic resonance imaging (MRI) for tumour assessments were performed at baseline and at 12-week intervals, or as clinically indicated. In patients with baseline measurable disease tumour response per modified RECIST ([Therasse et al, 2000]) was assessed by the investigator. Complete and partial responses were confirmed using CT or MRI scans no less than 28 days after the initial response.

[2] = human, in vivo
[3] = human, in vivo; remark: listed apart in the source
VEGFR1 = test system: VEGFR1; parameters: method as in Polverino et al, 2006; conditions: ref Polverino et al, 2006; cited from earlier work
VEGFR3 = test system: VEGFR3; parameters: method as in Polverino et al, 2006; conditions: ref Polverino et al, 2006; cited from earlier work
PDGFR = test system: PDGFR; parameters: method as in Polverino et al, 2006; conditions: ref Polverino et al, 2006; cited from earlier work
Kit = test system: Kit; parameters: method as in Polverino et al, 2006; conditions: ref Polverino et al, 2006; cited from earlier work
[4] = test system: human umbilical vein endothelial cell (HUVEC) proliferation; conditions: in vitro, cited from earlier work
[5] = parameters: method as in Rosen et al, 2007; conditions: motesanib monotherapy, first-in-human study; ref Rosen et al, 2007; cited from earlier work
clinical = conditions: human, in vivo
[6] = dose-limiting toxicities and adverse events in patients (phase 1b)

Compound: Nc1ccn([C@@H]2O[C@H](CO)[C@@H](O)C2(F)F)c(=O)n1 [gemcitabine]
- metabolism by CYP3A4 (CYP3A4): not metabolised by CYP3A4
- effect of motesanib coadministration on pharmacokinetics ([1]; combination therapy): not markedly affected
- AUC(0-t) ([1]; human, plasma, intravenous, 1000 mg m^−2, AUC0–2, week 1, range across motesanib dose groups): 4720 to 6270 ng·h/mL
- AUC(0-t) ([1]; human, plasma, intravenous, AUC0–2, week 2, range across motesanib dose groups): 6560 to 7920 ng·h/mL
- Cmax ([1]; human, plasma, iv, 1000 mg m^−2): 9720 ng/mL
- AUC(0-t) ([1]; human, plasma, iv, 1000 mg m^−2, AUC0–2, μg h ml^−1 (s.d.), gemcitabine 1000 mg m^−2 i.v. alone (week 1, day 1), motesanib 50 mg QD cohort): 5210 ng·h/mL
- AUC(0-t) ([1]; human, plasma, iv, 1000 mg m^−2, AUC0–2, μg h ml^−1 (s.d.), gemcitabine 1000 mg m^−2 i.v. alone (week 1, day 1), motesanib 75 mg BID cohort): 6270 ng·h/mL
- AUC(0-t) ([1]; human, plasma, iv, 1000 mg m^−2, AUC0–2, μg h ml^−1 (s.d.), gemcitabine 1000 mg m^−2 i.v. alone (week 1, day 1), motesanib 125 mg QD cohort): 4720 ng·h/mL
- concentration at 2 h ([1]; human, plasma, iv, 1000 mg m^−2, C2, ng ml^−1 (s.d.), gemcitabine 1000 mg m^−2 i.v. alone (week 1, day 1), motesanib 50 mg QD cohort): 104 ng/mL
- concentration at 2 h ([1]; human, plasma, iv, 1000 mg m^−2, C2, ng ml^−1 (s.d.), gemcitabine 1000 mg m^−2 i.v. alone (week 1, day 1), motesanib 75 mg BID cohort): 101 ng/mL
- concentration at 2 h ([1]; human, plasma, iv, 1000 mg m^−2, C2, ng ml^−1 (s.d.), gemcitabine 1000 mg m^−2 i.v. alone (week 1, day 1), motesanib 125 mg QD cohort): 88 ng/mL
- Tmax ([1]; human, plasma, iv, 1000 mg m^−2, tmax, gemcitabine 1000 mg m^−2 i.v. alone (week 1, day 1), motesanib 50 mg QD cohort): 0.5 h
- Tmax ([1]; human, plasma, iv, 1000 mg m^−2, tmax, gemcitabine 1000 mg m^−2 i.v. alone (week 1, day 1), motesanib 75 mg BID cohort): 0.5 h
- Tmax ([1]; human, plasma, iv, 1000 mg m^−2, tmax, gemcitabine 1000 mg m^−2 i.v. alone (week 1, day 1), motesanib 125 mg QD cohort): 0.38 h
- AUC(0-t) ([1]; human, plasma, iv, AUC0–2, μg h ml^−1 (s.d.), gemcitabine 1000 mg m^−2 i.v. in combination with motesanib 50 mg QD (week 2, day 1)): 7920 ng·h/mL
- AUC(0-t) ([1]; human, plasma, iv, AUC0–2, μg h ml^−1 (s.d.), gemcitabine 1000 mg m^−2 i.v. in combination with motesanib 75 mg BID (week 2, day 1)): 7090 ng·h/mL
- AUC(0-t) ([1]; human, plasma, iv, AUC0–2, μg h ml^−1 (s.d.), gemcitabine 1000 mg m^−2 i.v. in combination with motesanib 125 mg QD (week 2, day 1)): 6560 ng·h/mL
- concentration at 2 h ([1]; human, plasma, iv, C2, ng ml^−1 (s.d.), gemcitabine 1000 mg m^−2 i.v. in combination with motesanib 50 mg QD (week 2, day 1)): 183 ng/mL
- concentration at 2 h ([1]; human, plasma, iv, C2, ng ml^−1 (s.d.), gemcitabine 1000 mg m^−2 i.v. in combination with motesanib 75 mg BID (week 2, day 1)): 234 ng/mL
- concentration at 2 h ([1]; human, plasma, iv, C2, ng ml^−1 (s.d.), gemcitabine 1000 mg m^−2 i.v. in combination with motesanib 125 mg QD (week 2, day 1)): 133 ng/mL
- Tmax ([1]; human, plasma, iv, tmax, gemcitabine 1000 mg m^−2 i.v. in combination with motesanib 50 mg QD (week 2, day 1)): 0.5 h
- Tmax ([1]; human, plasma, iv, tmax, gemcitabine 1000 mg m^−2 i.v. in combination with motesanib 75 mg BID (week 2, day 1)): 0.5 h
- Tmax ([1]; human, plasma, iv, tmax, gemcitabine 1000 mg m^−2 i.v. in combination with motesanib 125 mg QD (week 2, day 1)): 0.25 h
- increase of mean Cmax and AUC in week 2 compared with week 1 ([1]; same patients, all motesanib dose groups): < 2 fold

Compound: CC1(C)CNc2cc(NC(=O)c3cccnc3NCc3ccncc3)ccc21 [motesanib]
- Confirmed complete response, n (%) (advanced solid tumours; 50 mg QD cohort (n=11)): 0 (0) n (%)
- Confirmed objective response, % (95% CI) (advanced solid tumours; 50 mg QD cohort (n=11)): 0 (0.0–28.5) %
- Confirmed partial response, n (%) (advanced solid tumours; 50 mg QD cohort (n=11)): 0 (0) n (%)
- Progressive disease, n (%) (advanced solid tumours; 50 mg QD cohort (n=11)): 7 (64) n (%)
- Stable disease, n (%) (advanced solid tumours; 50 mg QD cohort (n=11)): 4 (36) n (%)
- Confirmed complete response, n (%) (advanced solid tumours; 75 mg BID cohort (n=9)): 0 (0) n (%)
- Confirmed objective response, % (95% CI) (advanced solid tumours; 75 mg BID cohort (n=9)): 0 (0.0–33.6) %
- Confirmed partial response, n (%) (advanced solid tumours; 75 mg BID cohort (n=9)): 0 (0) n (%)
- Progressive disease, n (%) (advanced solid tumours; 75 mg BID cohort (n=9)): 2 (22) n (%)
- Stable disease, n (%) (advanced solid tumours; 75 mg BID cohort (n=9)): 1 (11) n (%)
- Confirmed complete response, n (%) (advanced solid tumours; 125 mg QD cohort (n=6)): 0 (0) n (%)
- Confirmed objective response, % (95% CI) (advanced solid tumours; 125 mg QD cohort (n=6)): 17 (0.4–64.1) %
- Confirmed partial response, n (%) (advanced solid tumours; 125 mg QD cohort (n=6)): 1 (17) n (%)
- Progressive disease, n (%) (advanced solid tumours; 125 mg QD cohort (n=6)): 3 (50) n (%)
- Stable disease, n (%) (advanced solid tumours; 125 mg QD cohort (n=6)): 2 (33) n (%)
- objective response rate (advanced solid tumours; all patients (1 of 26), with gemcitabine): 4%
- patients who achieved stable disease (advanced solid tumours; all patients (7 of 26), with gemcitabine): 27%
- Confirmed complete response, n (%) (advanced solid tumours; all patients (n=26)): 0 (0) n (%)
- Confirmed objective response, % (95% CI) (advanced solid tumours; all patients (n=26)): 4 (0.1–19.6) %
- Confirmed partial response, n (%) (advanced solid tumours; all patients (n=26)): 1 (4) n (%)
- Progressive disease, n (%) (advanced solid tumours; all patients (n=26)): 12 (46) n (%)
- Stable disease, n (%) (advanced solid tumours; all patients (n=26)): 7 (27) n (%)
- durable stable disease ⩾24 weeks (advanced solid tumours; all patients, with gemcitabine): No patients
- patients with progressive disease as best response (advanced solid tumours; all patients, with gemcitabine): 12 of 26
- decrease of Cmax (except 125 mg QD, week 1) and AUC vs motesanib monotherapy study [2]: < 50%
- tmax, h (range) [2]: 0.5 (0.25–6.0) h
- cases of cholecystitis [3]: No cases of cholecystitis occurred
- motesanib-related diarrhoea [3]: 4 n
- motesanib-related fatigue [3]: 3 n
- motesanib-related headache [3]: 3 n
- motesanib-related lethargy [3]: 6 n
- motesanib-related nausea [3]: 3 n
- patients with motesanib treatment-related adverse events [3]: 62%
- pIC50 (PDGFR): 7.08
- IC90 of HUVEC proliferation ([4]; ref Amgen Inc., data on file): 0.028 µg/mL
- IC50 of HUVEC proliferation ([4]; ref Polverino et al, 2006): 0.004 µg/mL
- maximum-tolerated dose [5]: 125 mg QD
- AUC(0-inf) (clinical; 125 mg): 1700 ng·h/mL
- AUC(0-t) (clinical; 125 mg): 1900 ng·h/mL
- Cmax (clinical; 125 mg): 421 ng/mL
- concentration at 24 h (clinical; 125 mg): 6.9 ng/mL
- half-life (clinical; 125 mg, t1/2,z, h (s.d.), motesanib 125 mg QD, after single-dose (week 1, day 2), mean (s.d.)): 3.8 h
- Tmax (clinical; 125 mg, tmax, h (range), motesanib 125 mg QD, after single-dose (week 1, day 2), median (range)): 1.5 h
- half-life (clinical; mean t1/2,z, after multiple-dose administration in combination with gemcitabine, range over cohorts): 4.3 to 5 h
- half-life (clinical; mean t1/2,z, after single-dose administration, range over cohorts): 3.8 to 5.7 h
- Tmax (clinical; overall median tmax, after multiple-dose administration in combination with gemcitabine, range over cohorts): 0.83 to 2 h
- Tmax (clinical; po, overall median tmax, after single-dose oral administration, range for all three dose cohorts): 0.5 to 1.5 h
- half-life (clinical; t1/2,z, h (s.d.)): 5.65 h
- half-life (clinical; t1/2,z, h (s.d.), motesanib 125 mg QD, after multiple-dose with gemcitabine (week 2, day 1), mean (s.d.)): 4.6 h
- Tmax (clinical; tmax, h (range)): 0.57 h
- Tmax (clinical; tmax, h (range), motesanib 125 mg QD, after multiple-dose with gemcitabine (week 2, day 1), median (range)): 2 h
- deaths during the study ([6]; all patients, all deaths unrelated to motesanib treatment): Three patients died
- target once-daily dose (maximum target dose) ([6]; in combination with gemcitabine 1000 mg m^−2): 125 mg QD
